Source: patent US20240317749A1, “THERAPEUTIC COMPOUNDS” (priority 2021, published 2024)
Converted amounts (≈) assume the structure as drawn.

What was measured:
[1] = system: N. gonorrhoeae ATCC 49226; experiment: MIC assay for N. gonorrhoeae, broth microdilution in Todd-Hewitt (TH) broth; type: cell-based; conditions: Neisseria gonorrhoeae, ATCC49226; Antibacterial Activity against N. gonorrhoeae ATCC 49226 in TH
Source text: MIC assays for N. gonorrhoeae were done using the ATCC 49226 strain. The procedure guidelines recommended by the Clinical and Laboratory Standards Institute (CLSI) for the broth microdilution MIC assay were modified by substituting […]. Also, the recommended bacterial inoculum was modified to meet the high inoculum demands needed for N. gonorrhoeae growth. A 96-well plate containing TH broth with 2-fold serial dilution of compounds was inoculated with log-phase bacterial at 2.5×10^7 CFU/mL. The final volume in each well was 200 μL. Each compound was tested in duplicate. The microtiter plates were incubated in an […] environment for 24 hours at 37° C. using the candle jar technique. Then the bacterial growth was tested by reading the plate with a SpectraMax iD5 plate reader (Molecular Devices, Inc.) at 600 nm. The MIC was defined as the lowest compound concentration that inhibited bacteria growth.

P. mirabilis ATCC 29906 = experiment: MIC assay, CLSI broth microdilution in CAMH broth; type: cell-based, Proteus mirabilis
Description: (§1) MIC assays for various Gram-negative and Gram-positive strains were conducted in accordance with the CLSI guidelines for broth microdilution. A 96-well plate containing CAMH broth with 2-fold serial dilution of compounds was inoculated with log-phase bacterial at 5×10^5 CFU/mL. The final volume in each well was 100 μL. Each compound was tested in duplicate. The microtiter plates were incubated in an aerobic environment for 18 hours at 37° C. Then the bacterial growth was tested by reading the plate with a SpectraMax iD5 plate reader (Molecular Devices, Inc.) at 600 nm. The MIC was defined as the lowest compound concentration that inhibited bacteria growth.
(§2) The following Gram-negative and Gram-positive strains were used in the aerobic MIC procedure: • P. aeruginosa ATCC 27853 • A. baumannii ATCC 19606 • E. coli ATCC 25922 • E. coli W4573 • E. coli N43 • K. pneumoniae ATCC 10031 • K. pneumoniae ATCC 13883 • S. sonnei ATCC 29930 • P. mirabilis ATCC 29906 • Methicillin-susceptible S. aureus (MSSA) ATCC 19636 • Methicillin-resistant S. aureus (MRSA) ATCC 33951

E. coli W4573 = experiment: MIC assay, CLSI broth microdilution in CAMH broth; type: cell-based, Escherichia coli
Description: as §1, §2

E. coli ATCC 25922 = experiment: MIC assay, CLSI broth microdilution in CAMH broth; type: cell-based, Escherichia coli
Description: as §1, §2

[2] = system: Methicillin-susceptible S. aureus (MSSA) ATCC 19636; experiment: MIC assay, CLSI broth microdilution in CAMH broth; type: cell-based, Staphylococcus aureus
Description: as §1, §2

[3] = system: Methicillin-resistant S. aureus (MRSA) ATCC 33591; experiment: MIC assay, CLSI broth microdilution in CAMH broth; type: cell-based, Staphylococcus aureus
Description: as §1, with “growth. […]” for “growth.”

K. pneumoniae ATCC 10031 = experiment: MIC assay, CLSI broth microdilution in CAMH broth; type: cell-based, Klebsiella pneumoniae; conditions: K. pneumonias ATCC 10031
Description: as §1, §2

K. pneumoniae ATCC 13883 = experiment: MIC assay, CLSI broth microdilution in CAMH broth; type: cell-based, Klebsiella pneumoniae; conditions: K. pneumonias ATCC 13883
Description: as §1, §2

P. aeruginosa ATCC 27853 = experiment: MIC assay, CLSI broth microdilution in CAMH broth; type: cell-based, Pseudomonas aeruginosa; conditions: P. aeruginosa ATCC 278538
Description: as §1, §2

E. coli N43 = experiment: MIC assay, CLSI broth microdilution in CAMH broth; type: cell-based, Escherichia coli
Description: as §1, §2

SMILES | MIC [1] [µg/mL] | Intrinsic MIC in CAMH (P. mirabilis ATCC 29906) | Intrinsic MIC in CAMH (E. coli W4573) | Intrinsic MIC in CAMH (E. coli ATCC 25922) | Intrinsic MIC in CAMH [2] | Intrinsic MIC in CAMH [3] | Intrinsic MIC in CAMH (K. pneumoniae ATCC 10031) | Intrinsic MIC in CAMH (K. pneumoniae ATCC 13883) | Intrinsic MIC in CAMH (P. aeruginosa ATCC 27853) | Intrinsic MIC in CAMH (E. coli N43)
Nc1nc(N)c2ccc3c(ccn3Cc3ccccc3Br)c2n1 [Example 4, 7-(2-bromobenzyl)-7H-pyrrolo[2,3-h]quinazoline-2,4-diamine] | 2 (≈ 5.43 µM) | >64¤ | 2¤ | 4¤ | ≤0.125¤ | ≤0.125¤ | <0.125¤ | 8¤ | >64¤ | –
Nc1nc(N)c2ccc3c(ccn3CC3CCCCC3)c2n1 [Example 27, 7-(cyclohexylmethyl)-7H-pyrrolo[2,3-h]quinazoline-2,4-diamine] | 4 (≈ 13.5 µM) | >64¤ | 2¤ | 4¤ | ≤0.125¤ | ≤0.125¤ | <0.125¤ | 4¤ | >64¤ | –
Nc1nc(N)c2ccc3c(ccn3Cc3cc(Br)ccc3F)c2n1 [Example 34, 7-(5-bromo-2-fluorobenzyl)-7H-pyrrolo[2,3-h]quinazoline-2,4-diamine] | 16 (≈ 41.4 µM) | 64¤ | 2¤ | – | ≤0.063¤ | ≤0.063¤ | <0.125¤ | 64¤ | >64¤ | –
Nc1nc(N)c2ccc3c(ccn3Cc3ccc(Br)cc3Br)c2n1 [Example 35, 7-(2,4-dibromobenzyl)-7H-pyrrolo[2,3-h]quinazoline-2,4-diamine] | 4 (≈ 8.95 µM) | >64¤ | 8¤ | – | 0.5¤ | 1¤ | 0.25¤ | >64¤ | >64¤ | <0.125¤
Nc1nc(N)c2ccc3c(ccn3Cc3ccc(-c4ccccc4C(F)(F)F)cc3)c2n1 [Example 36, 7-((2′-(trifluoromethyl)-[1,1′-biphenyl]-4-yl)methyl)-7H-pyrrolo[2,3-h]quinazoline-2,4-diamine] | 8 (≈ 18.5 µM) | >64¤ | 8¤ | – | 0.5¤ | 0.5¤ | 1¤ | >64¤ | >64¤ | <0.125¤
N#Cc1cc(F)ccc1-c1ccc(Cn2ccc3c4nc(N)nc(N)c4ccc32)cc1 [Example 37, 4′-((2,4-diamino-7H-pyrrolo[2,3-h]quinazolin-7-yl)methyl)-4-fluoro-[1,1′-biphenyl]-2-carbonitrile] | 1 (≈ 2.45 µM) | >64¤ | 8¤ | – | 0.125¤ | 0.125¤ | 0.25¤ | >64¤ | >64¤ | <0.125¤
N#Cc1ccccc1-c1ccc(Cn2ccc3c4nc(N)nc(N)c4ccc32)cc1F [Example 38, 4′-((2,4-diamino-7H-pyrrolo[2,3-h]quinazolin-7-yl)methyl)-2′-fluoro-[1,1′-biphenyl]-2-carbonitrile] | 0.125 (≈ 0.306 µM) | >64¤ | 1¤ | – | ≤0.063¤ | ≤0.063¤ | <0.125¤ | 16¤ | >64¤ | –
N#Cc1ccccc1-c1ccc(Cn2ccc3c4nc(N)nc(N)c4ccc32)c(F)c1 [Example 39, 4′-((2,4-diamino-7H-pyrrolo[2,3-h]quinazolin-7-yl)methyl)-3′-fluoro-[1,1′-biphenyl]-2-carbonitrile] | – | >64¤ | 8¤ | – | ≤0.063¤ | ≤0.063¤ | 1¤ | >64¤ | >64¤ | ≤0.063¤
Nc1nc(N)c2ccc3c(ccn3CC#Cc3ccccc3)c2n1 [Example 41, 7-(3-phenylprop-2-yn-1-yl)-7H-pyrrolo[2,3-h]quinazoline-2,4-diamine] | 8 (≈ 25.5 µM) | >64¤ | 2¤ | – | 0.5¤ | 1¤ | <0.125¤ | 8¤ | >64¤ | –
C#Cc1ccc(Cn2ccc3c4nc(N)nc(N)c4ccc32)cc1 [Example 42, 7-(4-ethynylbenzyl)-7H-pyrrolo[2,3-h]quinazoline-2,4-diamine] | 8 (≈ 25.5 µM) | 32¤ | 4¤ | – | ≤0.063¤ | ≤0.063¤ | <0.125¤ | 32¤ | >64¤ | –
Nc1nc(N)c2ccc3c(ccn3Cc3ccc(C#Cc4ccccc4)cc3)c2n1 [Example 43, 7-(4-(phenylethynyl)benzyl)-7H-pyrrolo[2,3-h]quinazoline-2,4-diamine] | > 64 | >64¤ | >64¤ | – | 32¤ | 2¤ | >64¤ | >64¤ | >64¤ | 32¤
Nc1nc(N)c2ccc3c(ccn3Cc3cccc(C#Cc4ccccc4)c3)c2n1 [Example 44, 7-(3-(phenylethynyl)benzyl)-7H-pyrrolo[2,3-h]quinazoline-2,4-diamine] | – | >64¤ | >64¤ | – | 2¤ | 1¤ | 32¤ | >64¤ | >64¤ | 4¤
Nc1nc(N)c2ccc3c(ccn3Cc3cccc(C#Cc4ccccc4C(F)(F)F)c3)c2n1 [Example 45, 7-(3-((2-(trifluoromethyl)phenyl)ethynyl)benzyl)-7H-pyrrolo[2,3-h]quinazoline-2,4-diamine] | – | >64¤ | >64¤ | – | 2¤ | 2¤ | >64¤ | >64¤ | >64¤ | 32¤
N#Cc1ccccc1-c1ccc(Cn2ccc3c4nc(N)nc(N)c4cnc32)cc1 [Example 49, 4′-((2,4-diamino-7H-pyrrolo[3′,2′:5,6]pyrido[4,3-d]pyrimidin-7-yl)methyl)-[1,1′-biphenyl]-2-carbonitrile] | – | >64¤ | >64¤ | – | ≤0.063¤ | ≤0.063¤ | 0.5¤ | >64¤ | >64¤ | <0.125¤
Nc1nc(N)c2cnc3c(ccn3Cc3cccc(Br)c3)c2n1 [Example 50, 7-(3-bromobenzyl)-7H-pyrrolo[3′,2′:5,6]pyrido[4,3-d]pyrimidine-2,4-diamine] | – | >64¤ | 32¤ | – | ≤0.063¤ | ≤0.063¤ | 1¤ | >64¤ | >64¤ | ≤0.063¤
